Test system: tau protein
Test: Tau protein in vitro degradation assay (Western blot, Tau-13 antibody)
Type: cell-based, human
Details: SK-N-SH cells, 72 hours of incubation; for Activity* (highest amount of degradation observed at any dosage, as tau protein remaining): tested at 1000 nM, 300 nM and 100 nM
How it was run: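 Tau degradation read by Tau-13 Western blot (detects all human tau forms) of SDS-PAGE-resolved lysates from SK-N-SH cells. Cells were plated at least 18 h before 72 h exposure to PROTACs at either 1000/300/100 nM or 300/100/33/11 nM.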

[1] = tested at 300 nM, 100 nM, 33 nM and 11 nM, Western blot, Tau-13 antibody

## Cn1c2ccncc2c2ccc(-c3ccc(O[C@H]4C[C@H](Oc5ccc(CCCCCOc6ccc7c(c6)C(=O)N(C6CCC(=O)NC6=O)C7=O)nc5)C4)nc3)cc21 (stereo partly drawn) [Compound 95, 2-(2,6-dioxopiperidin-3-yl)-5-((5-(5-((1r,3r)-3-((5-(5-methyl-5H-pyrido[4,3-b]indol-7-yl)pyridin-2-yl)oxy)cyclobutoxy)pyridin-2-yl)pentyl)oxy)isoindoline-1,3-dione]
[1]
  Degradation activity* (highest amount of degradation observed at any dosage; tau protein remaining): C (>80% tau protein remaining after 72 hours of incubation with the test compound)

## Cn1c2ccncc2c2ccc(-c3cnc(O[C@H]4C[C@H](OCCCOCCCOC5CN(c6ccc7c(c6)C(=O)N(C6CCC(=O)NC6=O)C7=O)C5)C4)c(C(F)(F)F)c3)cc21 (stereo partly drawn) [Compound 125, 2-(2,6-dioxopiperidin-3-yl)-5-(3-(3-(3-((1r,3r)-3-((5-(5-methyl-5H-pyrido[4,3-b]indol-7-yl)-3-(trifluoromethyl)pyridin-2-yl)oxy)cyclobutoxy)propoxy)propoxy)azetidin-1-yl)isoindoline-1,3-dione]
[1]
  Degradation activity* (highest amount of degradation observed at any dosage; tau protein remaining): C (>80% tau protein remaining after 72 hours of incubation with the test compound)

## Cn1c2ccncc2c2ccc(-c3ccc(OCCOCCOCCOCCCCC(Oc4ccc5c(c4)C(=O)N(C4CCC(=O)NC4=O)C5=O)C(F)(F)F)nc3)cc21 (stereo not drawn) [Compound 129, 2-(2,6-dioxopiperidin-3-yl)-5-((1,1,1-trifluoro-6-(2-(2-(2-((5-(5-methyl-5H-pyrido[4,3-b]indol-7-yl)pyridin-2-yl)oxy)ethoxy)ethoxy)ethoxy)hexan-2-yl)oxy)isoindoline-1,3-dione]
[1]
  Degradation activity* (highest amount of degradation observed at any dosage; tau protein remaining): C (>80% tau protein remaining after 72 hours of incubation with the test compound)

## Cc1ncsc1-c1ccc(CNC(=O)[C@@H]2C[C@@H](O)CN2C(=O)[C@@H](NC(=O)COCCOCCOCCOCCN2CCN(c3ccn4c(n3)nc3ccccc34)CC2)C(C)(C)C)cc1 [Compound 23, (2S,4R)-1-((5)-17-(4-(benzo[4,5]imidazo[1,2-a]pyrimidin-2-yl)piperazin-1-yl)-2-(tert-butyl)-4-oxo-6,9,12,15-tetraoxa-3-azaheptadecanoyl)-4-hydroxy-N-(4-(4-methylthiazol-5-yl)benzyl)pyrrolidine-2-carboxamide]
  Activity* (highest amount of degradation observed at any dosage, as tau protein remaining): C (>80% tau protein remaining after 72 hours of incubation with the test compound)

## Cc1ncsc1-c1ccc([C@H](C)NC(=O)[C@@H]2C[C@@H](O)CN2C(=O)[C@@H](NC(=O)COCCOCCOc2ccc3nc(-c4ccc(N(C)C)cc4)ccc3c2)C(C)(C)C)cc1 [Compound 28, (2S,4R)-1-((S)-2-(2-(2-(2-(2-(4-(dimethylamino)phenyl)quinolin-6-yloxy)ethoxy)ethoxy)acetamido)-3,3-dimethylbutanoyl)-4-hydroxy-N—((S)-1-(4-(4-methylthiazol-5-yl)phenyl)ethyl)pyrrolidine-2-carboxamide]
  Activity* (highest amount of degradation observed at any dosage, as tau protein remaining): C (>80% tau protein remaining after 72 hours of incubation with the test compound)

## Cn1c2ccncc2c2ccc(-c3ccc(O[C@H]4C[C@H](OCCOc5ccc(OC6CN(c7ccc8c(c7)C(=O)N(C7CCC(=O)NC7=O)C8=O)C6)nc5)C4)nc3)cc21 (stereo partly drawn) [Compound 155, 2-(2,6-dioxopiperidin-3-yl)-5-(3-((5-(2-((1r,3r)-3-((5-(5-methyl-5H-pyrido[4,3-b]indol-7-yl)pyridin-2-yl)oxy)cyclobutoxy)ethoxy)pyridin-2-yl)oxy)azetidin-1-yl)isoindoline-1,3-dione]
[1]
  Degradation activity* (highest amount of degradation observed at any dosage; tau protein remaining): C (>80% tau protein remaining after 72 hours of incubation with the test compound)

## Cc1ncoc1-c1ccc([C@H](C)NC(=O)[C@@H]2C[C@@H](O)CN2C(=O)[C@@H](NC(=O)COCCOCCOCCOCCN2CCN(c3ccn4c(n3)nc3ccccc34)CC2)C(C)(C)C)cc1 [Compound 20, (2S,4R)-1-((S)-17-(4-(benzo[4,5]imidazo[1,2-a]pyrimidin-2-yl)piperazin-1-yl)-2-(tert-butyl)-4-oxo-6,9,12,15-tetraoxa-3-azaheptadecanoyl)-4-hydroxy-N—((S)-1-(4-(4-methyloxazol-5-yl)phenyl)ethyl)pyrrolidine-2-carboxamide]
  Activity* (highest amount of degradation observed at any dosage, as tau protein remaining): C (>80% tau protein remaining after 72 hours of incubation with the test compound)

## Cc1ncsc1-c1ccc([C@H](C)NC(=O)[C@@H]2C[C@@H](O)CN2C(=O)[C@@H](NC(=O)COCCOc2ccc(-c3ccc4c(c3)[nH]c3ccncc34)cn2)C(C)(C)C)cc1 [Compound 120, (2S,4R)-1-((S)-2-(2-(2-((5-(5H-pyrido[4,3-b]indol-7-yl)pyridin-2-yl)oxy)ethoxy)acetamido)-3,3-dimethylbutanoyl)-4-hydroxy-N—((S)-1-(4-(4-methylthiazol-5-yl)phenyl)ethyl)pyrrolidine-2-carboxamide]
[1]
  Degradation activity* (highest amount of degradation observed at any dosage; tau protein remaining): C (>80% tau protein remaining after 72 hours of incubation with the test compound)

## Cn1c2ccncc2c2ccc(-c3ccc(O[C@H]4C[C@H](OCCOCCOC5CC6(C5)CN(c5ccc7c(c5)C(=O)N(C5CCC(=O)NC5=O)C7=O)C6)C4)nc3)cc21 (stereo partly drawn) [Compound 213, 2-(2,6-dioxopiperidin-3-yl)-5-(6-(2-(2-((1r,3r)-3-((5-(5-methyl-5H-pyrido[4,3-b]indol-7-yl)pyridin-2-yl)oxy)cyclobutoxy)ethoxy)ethoxy)-2-azaspiro[3.3]heptan-2-yl)isoindoline-1,3-dione]
[1]
  Degradation activity (tau protein remaining; highest amount of degradation observed at any dosage): C (>80% tau protein remaining after 72 hours of incubation with the test compound)

From patent US11458123B2 (Arvinas, Inc., priority 2016, dated 2022)
